The term IC50 denotes the concentration at which inhibition is half-maximal.

Bounds are passed on as bounds.

What all share (format): biochemical
One assay concerns the target T1, ΔTM rat FAAH (Rattus norvegicus, UniProt P97612).
T1 construct: Preparation of Transmembrane Domain-Deleted Rat FAAH (ΔTM rFAAH); made in house; host or cells: E. coli
T1 sequence (P97612 30-579 limits assumed): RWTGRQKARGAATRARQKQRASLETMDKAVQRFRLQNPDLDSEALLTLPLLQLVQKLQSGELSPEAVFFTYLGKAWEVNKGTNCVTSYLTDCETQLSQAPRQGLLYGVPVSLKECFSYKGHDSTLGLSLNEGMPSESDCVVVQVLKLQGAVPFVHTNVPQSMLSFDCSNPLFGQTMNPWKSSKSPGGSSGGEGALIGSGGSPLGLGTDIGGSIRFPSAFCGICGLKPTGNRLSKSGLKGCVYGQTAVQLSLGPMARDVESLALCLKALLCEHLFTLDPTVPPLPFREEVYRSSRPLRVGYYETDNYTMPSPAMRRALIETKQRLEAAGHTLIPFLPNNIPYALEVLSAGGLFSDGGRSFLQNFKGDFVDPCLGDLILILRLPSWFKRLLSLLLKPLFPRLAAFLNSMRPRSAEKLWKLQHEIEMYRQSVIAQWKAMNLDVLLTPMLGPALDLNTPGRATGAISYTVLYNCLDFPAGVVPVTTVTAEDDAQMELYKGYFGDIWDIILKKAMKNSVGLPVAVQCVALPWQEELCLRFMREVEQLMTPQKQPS
The assay can be described thus: Fluorescent assay protocol for ΔTM rat FAAH (AAMCA substrate). Conditions: 15 min preincubation, read-out: IC50 rFAAH. How it is done: Procedure was followed as described for hMAGL, except that arachidonoyl-methyl coumarin amide (AAMCA) was used as fluorigenic substrate. […] For the screening assay, 3 concentrations (1 μM, 10 μM, and 100 μM) of test compounds, 15 μg of ΔTM rFAAH and assay buffer were pre-incubated for 15 min at 25° C. […] The fluorescence reading at the 3 hour time point (linear enzyme kinetics) was used to calculate percent inhibition based on control assays without inhibitor present. All FAAH assays were performed in triplicate for each inhibitor concentration, and IC50 values determined using Prizm software (GraphPad Software, Inc.).

The target in another assay is T2, Human FAAH (MBPΔTMhFAAH) (Homo sapiens, UniProt O00519).
T2 construct: made in house; host or cells: E. coli (pMALcE4 vector)
T2 sequence (O00519 30-579 limits assumed): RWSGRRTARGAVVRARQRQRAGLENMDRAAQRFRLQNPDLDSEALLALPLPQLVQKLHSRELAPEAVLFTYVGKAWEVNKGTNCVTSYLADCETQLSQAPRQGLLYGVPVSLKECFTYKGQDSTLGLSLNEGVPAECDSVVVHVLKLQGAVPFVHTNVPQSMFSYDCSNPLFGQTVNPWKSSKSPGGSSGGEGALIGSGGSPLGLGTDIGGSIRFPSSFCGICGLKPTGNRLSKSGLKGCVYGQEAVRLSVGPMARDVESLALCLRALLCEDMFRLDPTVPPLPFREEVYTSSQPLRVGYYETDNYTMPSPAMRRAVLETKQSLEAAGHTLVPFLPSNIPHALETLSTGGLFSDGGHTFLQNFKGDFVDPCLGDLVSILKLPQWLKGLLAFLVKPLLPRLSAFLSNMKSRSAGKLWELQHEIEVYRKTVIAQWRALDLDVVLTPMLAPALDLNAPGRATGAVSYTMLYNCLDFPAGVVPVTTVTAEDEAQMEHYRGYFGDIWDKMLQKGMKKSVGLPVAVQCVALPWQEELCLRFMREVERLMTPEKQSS
Briefly: Fluorescent assay protocol for hFAAH. The settings on record: human FAAH (MBP fusion, ΔTM), procedure as for rFAAH. How it is done:
Human FAAH without putative transmembrane domain following maltose binding protein was expressed in E. coli cells using pMALcE4 vector Alapafuja et al J. Med. Chem. (2012) 55: 10074-89.
Procedure was followed as described for hMAGL, except that arachidonoyl-methyl coumarin amide (AAMCA) was used as fluorigenic substrate. Compounds were diluted in 50:50 DMSO/assay buffer (50 mM HEPES, 1 mM EDTA, 0.1% BSA, pH 7.4) so as to have a final DMSO concentration below 8% in each reaction. For the screening assay, 3 concentrations (1 μM, 10 μM, and 100 μM) of test compounds, 15 μg of ΔTM rFAAH and assay buffer were pre-incubated for 15 min at 25° C. AAMCA (20 μM, 2×Km) was added prior to incubation at 25° C. and kinetic fluorescence reading every 20 minutes (λex=360/λem=460) for 4 hours on a BioTek Synergy HT Microplate Reader (BioTek Instruments, Winooski, Vt.). The fluorescence reading at the 3 hour time point (linear enzyme kinetics) was used to calculate percent inhibition based on control assays without inhibitor present. All FAAH assays were performed in triplicate for each inhibitor concentration, and IC50 values determined using Prizm software (GraphPad Software, Inc.).
Procedure was followed as described for rFAAH.

In the next assay the target is T3, Rat MAGL (rMAGL) (Rattus norvegicus, UniProt Q8R431).
T3 construct: made in house; host or cells: E. coli
T3 sequence (Q8R431 1-303): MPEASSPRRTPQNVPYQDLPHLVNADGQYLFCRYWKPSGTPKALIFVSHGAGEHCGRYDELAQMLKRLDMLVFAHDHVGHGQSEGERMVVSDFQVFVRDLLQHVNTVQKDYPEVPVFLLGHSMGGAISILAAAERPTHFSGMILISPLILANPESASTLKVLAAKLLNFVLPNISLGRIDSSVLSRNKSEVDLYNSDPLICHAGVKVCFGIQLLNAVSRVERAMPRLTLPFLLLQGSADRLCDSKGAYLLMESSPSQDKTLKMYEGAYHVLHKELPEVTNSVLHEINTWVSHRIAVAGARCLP
The assay can be described thus: Fluorescent assay protocol for rMAGL. Conditions: recombinant rat MAGL, procedure as for hMAGL; read-out: IC50 rMAGL. How it is done: (§1) This medium throughput assay involved a 96-well plate format in which hMAGL activity was monitored by the hydrolysis of the substrate 7-hydroxy-6-methoxy-4-methylcoumarin ester (AHMMCE) to form the fluorescent product, coumarin. […] Upon the addition of AHMMCE, the reaction was incubated at 25° C. for 120 min; fluorescence readings were taken every 15 min at 360 nm/460 nm (λexcitation/λemission) using a Synergy HT Plate Reader (Bio-Tek, Winooski, Vt.). […] External standards were used to convert relative fluorescence units to the amount of 4-methylcoumarin formed. All MAGL assays were performed in triplicate for each inhibitor concentration, and IC50 values were calculated using Prizm software (GraphPad Software, Inc., San Diego, Calif.).
Procedure was followed as described for hMAGL.

In a further assay the target is T4, Human MAGL (hMAGL) (Homo sapiens, UniProt Q99685).
T4 construct: hexahistidine; made in house; host or cells: E. coli
T4 sequence (Q99685 1-303): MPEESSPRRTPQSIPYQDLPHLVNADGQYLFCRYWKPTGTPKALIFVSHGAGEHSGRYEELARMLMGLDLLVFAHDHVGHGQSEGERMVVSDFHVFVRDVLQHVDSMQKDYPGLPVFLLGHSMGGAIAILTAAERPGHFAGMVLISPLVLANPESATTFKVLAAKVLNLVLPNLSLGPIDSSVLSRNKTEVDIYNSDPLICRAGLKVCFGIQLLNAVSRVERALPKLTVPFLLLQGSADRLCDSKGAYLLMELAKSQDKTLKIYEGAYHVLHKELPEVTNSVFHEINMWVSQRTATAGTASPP
Briefly: Fluorescent assay protocol for hMAGL (AHMMCE substrate). Conditions: recombinant human MAGL, AHMMCE substrate, 15 min preincubation; read-out: IC50 hMAGL. Here is the method: as §1

“6-Chloropyridin-2-yl 4-(benzhydryl)piperidine-1-carboxylate [Example 51]”: the IC50 at ΔTM rat FAAH was 10 to 100 nM; at Human FAAH (MBPΔTMhFAAH) it was 10 to 100 nM; at Rat MAGL (rMAGL), greater than 1000 nM; at Human MAGL (hMAGL) it was greater than 1000 nM.
In the case of `C[C@@H]1CN(C(=O)Nc2cccc(-c3cccc(C(N)=O)c3)c2)CCN1Cc1ccc2ccccc2n1` [Example 2, (R)—N-(3′-carbamoyl-[1,1′-biphenyl]-3-yl)-3-methyl-4-(quinolin-2-ylmethyl)piperazine-1-carboxamide], the IC50 on ΔTM rat FAAH is 110 to 1000 nM; on Human FAAH (MBPΔTMhFAAH) it was greater than 1000 nM; at Rat MAGL (rMAGL) it was greater than 1000 nM; on Human MAGL (hMAGL) it was greater than 1000 nM.
`C[C@H]1CN(Cc2cccc(Oc3ccccc3)c2)CCN1C(=O)Nc1cccc(-c2cccc(C(N)=O)c2)c1` [Example 4, (S)—N-(3′-carbamoyl-[1,1′-biphenyl]-3-yl)-2-methyl-4-(3-phenoxybenzyl)piperazine-1-carboxamide]: the IC50 at ΔTM rat FAAH was 10 to 100 nM; on Human FAAH (MBPΔTMhFAAH), 10 to 100 nM; at Rat MAGL (rMAGL), greater than 1000 nM; on Human MAGL (hMAGL), greater than 1000 nM.
As to `C[C@H]1CN(Cc2cccc(Oc3ccccc3)c2)CCN1C(=O)Nc1cncc(-c2cccc(C#N)c2)c1` [Example 5, (S)—N-(5-(3-cyanophenyl)pyridin-3-yl)-2-methyl-4-(3-phenoxybenzyl)piperazine-1-carboxamide], the IC50 at ΔTM rat FAAH, at Human FAAH (MBPΔTMhFAAH), on Rat MAGL (rMAGL) and at Human MAGL (hMAGL) was greater than 1000 nM each time.
On to `NC(=O)c1cccc(-c2cccc(NC(=O)N3CCN(Cc4cnc5ccccc5c4)CC3)c2)c1` [Example 6, N-(3′-carbamoyl-[1,1′-biphenyl]-3-yl)-4-(quinolin-3-ylmethyl)piperazine-1-carboxamide], for which the IC50 on ΔTM rat FAAH is 10 to 100 nM; at Human FAAH (MBPΔTMhFAAH), 10 to 100 nM; on Rat MAGL (rMAGL) it was 110 to 1000 nM; at Human MAGL (hMAGL), 110 to 1000 nM.
On to `CC(C)C(c1ccccc1)N1CCN(C(=O)Oc2cccc(C#N)c2)CC1` (stereo not shown) [Example 35, 3-Cyanophenyl 4-(2-methyl-1-phenylpropyl)piperazine-1-carboxylate], for which the IC50 on ΔTM rat FAAH, at Human FAAH (MBPΔTMhFAAH) and on Human MAGL (hMAGL) was greater than 1000 nM in each case.
As to `N#Cc1cccc(OC(=O)N2CCN(C(c3ccccc3)C3CCCC3)CC2)c1` (stereo not shown) [Example 37, 3-cyanophenyl 4-(cyclopentyl(phenyl)methyl)piperazine-1-carboxylate], the IC50 at ΔTM rat FAAH and at Human FAAH (MBPΔTMhFAAH) was 10 to 100 nM in each case.
As to `N#Cc1cccc(OC(=O)N2CCN(C(c3ccc(F)cc3)c3ccc(F)cc3)CC2)c1` [Example 40, 3-cyanophenyl 4-(bis(4-fluorophenyl)methyl)piperazine-1-carboxylate], the IC50 on ΔTM rat FAAH and on Human FAAH (MBPΔTMhFAAH) was greater than 1000 nM in each case.
In the case of `N#Cc1cccc(OC(=O)N2CCN(C3c4ccccc4-c4ccccc43)CC2)c1` [Example 41, 3-cyanophenyl 4-(9H-fluoren-9-yl)piperazine-1-carboxylate], the IC50 at ΔTM rat FAAH and at Human FAAH (MBPΔTMhFAAH) was 110 to 1000 nM in each case.
Take `N#Cc1cccc(OC(=O)N2CCN(C(c3ccccc3)c3ccccc3)CC2)c1` [Example 44, 3-Cyanophenyl 4-benzhydrylpiperazine-1-carboxylate]: the concentration for half-maximal inhibition (IC50) on ΔTM rat FAAH and at Human FAAH (MBPΔTMhFAAH) was 10 to 100 nM throughout.
On to `N#Cc1ccc(F)c(OC(=O)N2CCC(C(c3ccccc3)c3ccccc3)CC2)c1` [Example 49, 5-cyano-2-fluorophenyl 4-benzhydrylpiperidine-1-carboxylate], for which the 50% inhibitory concentration (IC50) at ΔTM rat FAAH and on Human FAAH (MBPΔTMhFAAH) was greater than 1000 nM in each case.
With `N#Cc1cc(O)cc(OC(=O)N2CCC(C(c3ccccc3)c3ccccc3)CC2)c1` [Example 50, 3-cyano-5-hydroxyphenyl 4-benzhydrylpiperidine-1-carboxylate], the IC50 at ΔTM rat FAAH and on Human FAAH (MBPΔTMhFAAH) was greater than 1000 nM each time.
On to `N#Cc1cccc(OC(=O)N2CCC(OC(c3ccccc3)c3ccccc3)CC2)c1` [Example 58, 3-cyanophenyl 4-(benzhydryloxy)piperidine-1-carboxylate], for which the IC50 on ΔTM rat FAAH and on Human FAAH (MBPΔTMhFAAH) was greater than 1000 nM each time.

For the origin of these results see patent US11214578B2, “Urea/carbamates FAAH MAGL or dual FAAH/MAGL inhibitors and uses thereof” (Northeastern University, priority 2014, dated 2022).
